Measured values taken from patent publication US4673684A, “Amide derivatives and 5-lipoxygenase inhibitors containing the same as an active ingredient” (Terumo Corporation, priority 1984, dated 1987).

Target: T1, 5-lipoxygenase (Mus musculus, UniProt P48999)
T1 construct: The supernatant is used as a 5-lipogenase enzyme solution; endogenous in cells
T1 sequence (P48999 1-674): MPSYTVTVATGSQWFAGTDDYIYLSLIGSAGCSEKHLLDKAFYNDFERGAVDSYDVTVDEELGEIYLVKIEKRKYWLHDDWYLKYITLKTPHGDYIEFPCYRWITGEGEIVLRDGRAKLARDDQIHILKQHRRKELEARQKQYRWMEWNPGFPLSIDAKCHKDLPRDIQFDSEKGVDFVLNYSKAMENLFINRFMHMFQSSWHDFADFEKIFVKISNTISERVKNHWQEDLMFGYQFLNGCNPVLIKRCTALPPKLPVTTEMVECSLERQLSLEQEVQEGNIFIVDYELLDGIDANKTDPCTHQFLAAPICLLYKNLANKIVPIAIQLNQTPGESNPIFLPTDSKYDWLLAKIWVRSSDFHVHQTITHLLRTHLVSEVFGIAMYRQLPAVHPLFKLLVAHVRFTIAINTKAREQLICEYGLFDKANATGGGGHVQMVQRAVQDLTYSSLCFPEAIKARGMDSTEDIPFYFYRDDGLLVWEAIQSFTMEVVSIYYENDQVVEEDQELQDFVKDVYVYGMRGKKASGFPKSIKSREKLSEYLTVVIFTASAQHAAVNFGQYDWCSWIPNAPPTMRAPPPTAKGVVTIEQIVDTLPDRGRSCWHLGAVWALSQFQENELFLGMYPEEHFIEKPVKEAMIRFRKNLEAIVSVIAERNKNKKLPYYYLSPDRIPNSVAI
Experiment: 5-Lipoxygenase-inhibiting Activity (decrease in 5-HETE and LTB4 formed from radiolabelled arachidonic acid, enzyme solution from mouse mastcytoma cells P-815)
Type: biochemical
Details: not given
How it was run: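 Enzyme is sonicated 10,000 rpm supernatant of P-815 mouse mastocytoma cells, reacted 5 min at 37 °C with radiolabelled arachidonic acid, indomethacin and CaCl2 in pH 7.4 phosphate buffer. 5-HETE and LTB4 separated by TLC and counted by scintillation; IC50 or IC30 is concentration reducing product to 50% or 30% of control.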

SMILES	IC50
COc1cc(/C=C/C(=O)N2CCN(CCOC(c3ccccc3)c3ccccc3)CC2)cc(OC)c1O [Example 79, N-[3-(3,5-dimethoxy-4-hydroxyphenyl) -2-propenoyl]-N'-(2-benzhydroxyethyl)piperazine]	40 nM

Same assay, conditions: 5-HETE and LTB4 formation; mouse mastcytoma P-815 enzyme solution; 37° C., 5 min; pH 7.4; with indomethacin; read-out: 50% Inhibitory concentration IC50

SMILES	IC50
CC/C=C\C/C=C\C/C=C\CCCCCCCC(=O)NCCCCNC(=O)/C=C/C=C/c1ccc(O)c(O)c1 [Example 23, N-5-(3,4-dihydroxyphenyl)2,4-pentadienoyl-N'-9,12,15-octadecatrienoyl-1,4-diaminobutane]	20 nM
COc1cc(/C=C/C(=O)NCCN2CCC(OC(c3ccccc3)c3ccccc3)CC2)ccc1O [Example 116, 1-[2-[3-(3-methoxy-4-hydroxyphenyl)-2-propenoyl]aminoethyl]-4-benzhydroxypiperidine]	400 nM
COc1ccc(/C=C/C(=O)N2CCN(CCCOC(C)(c3ccccc3)c3ccc(Cl)cc3)CC2)cc1OC (stereo not shown) [Example 104, N-[3-(3,4-dimethoxy)phenyl-2-propenoyl]-N'-[3-[1-phenyl-1-(p-chlorophenyl)ethoxy]propyl]piperazine]	10000 nM
COc1cc(/C=C/C=C/C(=O)NCCN2CCN(C(c3ccccc3)c3ccccc3)CC2)cc(OC)c1OC [Example 59, N-[2-[5-(3,4,5-trimethoxyphenyl)-2,4-pentadienoyl]aminoethyl]-N'-benzhydrylpiperazine]	2000 nM
COc1ccc(/C=C/C=C/C(=O)NCCCCN2CCN(C(c3ccccc3)c3ccccc3)CC2)cc1OC [Example 93]	3000 nM
COc1cc(/C=C/C(=O)N2CCN(CCCCn3cnc4c3c(=O)n(C)c(=O)n4C)CC2)cc(OC)c1O [Example 125, 7-[4-[4-{3-(3,5-dimethoxy-4-hydroxyphenyl)-2-propenoyl}piperazi-1-nyl]butyl]theophylline]	7000 nM
COc1cc(/C=C/C(=O)NCCN2CCN(C(c3ccccc3)c3ccc(Cl)cc3)CC2)ccc1O (stereo not shown) [Example 1, N-(p-chlorobenzhydryl)-N'-[2-{3-(3-methoxy-4-hydroxyphenyl)-2-propenoyl}-aminoethyl]piperazine]	500 nM
Cn1c(=O)c2c(ncn2CCNC(=O)/C=C/c2ccc(O)c(O)c2)n(C)c1=O [Example 65, 7-[2-[3-(3,4-dihydroxy)phenyl-2-propenoyl]aminoethyl]theophilline]	2000 nM
O=C(/C=C/c1ccc(O)c(O)c1)N1CCN(CCOC(c2ccccc2)c2ccccc2)CC1 [Example 66, N-[3-(3,4-dihydroxyphenyl)-2-propenoyl]-N'-(2-benzhydroxyethyl)]	30 nM
O=C(/C=C/c1ccc(O)c(O)c1)NCCCN1CCC(OC(c2ccccc2)c2ccccc2)CC1 [Example 122, 1-[3-[3-(3,4-dihydroxyphenyl)-2-propenoyl]aminopropyl]-4-benzhydroxypiperidine]	10 nM
COc1cc(/C=C/C(=O)NCCOC(c2ccccc2)c2ccccc2)cc(OC)c1O [Example 81, 2-[3-(3,5-dimethoxy-4-hydroxy]phenyl-2-propenoyl) aminoethyl benzhydryl ether]	50 nM
COc1cc(/C=C/C=C/C(=O)NCCCCN2CCN(C(c3ccccc3)c3ccccc3)CC2)cc(OC)c1O [Example 97, N-benzhydryl-N'-[4-[5-(3,5-dimethoxy-4-hydroxy)phenyl-2,4-pentadienoyl]aminobutyl]]	40 nM
CC(=O)NCCCCNC(=O)/C=C/C=C/c1ccc(O)c(O)c1 [Example 20, N-{5-(3,4-dihydroxyphenyl)-2,4-pentadienoyl}-N'-acetyl-1,4-diaminobutane]	1000 nM
COc1cc(/C=C/C=C/C(=O)N2CCN(CCn3cnc4c3c(=O)n(C)c(=O)n4C)CC2)cc(OC)c1OC [Example 115, 7-[2-[4-[5-(3,4,5-trimethoxyphenyl)-2,4-pentadienoyl]piperazin-1-yl]ethyl]theophylline]	20000 nM
O=C(/C=C/c1ccc(O)c(O)c1)NCCCCN1CCN(C(c2ccccc2)c2ccccc2)CC1 [Example 64, N-[4-[3-,4-(3,4-dihydroxyphenyl)-2-propenoyl]aminobutyl]N'-benzhydrylpiperazine]	30 nM
O=C(/C=C/C=C/c1ccc(O)c(O)c1)NCCN1CCN(C(c2ccccc2)c2ccccc2)CC1 [Example 27, N-benzhydryl-N'-[2-{5-(3,4-dihydroxyphenyl)-2,4-pentadienoyl}aminoethyl]piperazine]	7 nM
O=C(/C=C/c1ccc(O)c(O)c1)NCCCCN1CCN(C(c2ccccc2)c2ccc(Cl)cc2)CC1 (stereo not shown) [Example 63]	50 nM
COc1ccc(/C=C/C=C/C(=O)N2CCN(CCCOC(c3ccccc3)c3ccccc3)CC2)cc1OC [Example 94, N-[5-(3,4-dimethoxyphenyl)-2,4-pentadienoyl]-N'-(3-benzhydroxypropyl)piperazine]	4000 nM
COc1ccc(/C=C/C(=O)NCCn2cnc3c2c(=O)n(C)c(=O)n3C)cc1OC [Example 75, 7-[2-[3-(3,4-dimethoxyphenyl) -2-porpenoyl]aminoethyl]theophylline]	20000 nM
COc1cc(/C=C/C(=O)N2CCN(CCOC(C)(c3ccccc3)c3ccc(Cl)cc3)CC2)ccc1O (stereo not shown) [Example 102, N-[3-[3-methoxy-4-hydroxyphenyl)-2-propenoyl]-N'-[2-[1-phenyl-1-(p-chlorophenyl)ethoxy]ethyl]piperazine]	200 nM

More lines, now with the values ahead:

IC50	SMILES
20000 nM	COc1cc(/C=C/C(=O)NCCCCNC(=O)c2ccccc2N)ccc1O [Example 35, N-3-[3-methoxy-4-hydroxy]pyenyl-2-butenoyl-N'-(2-amino)benzoylptolesine]
6000 nM	COc1cc(/C=C/C(=O)NCc2c(CO)cnc(C)c2O)cc(OC)c1O [Example 50, 4-[3-(3,5-dimethoxy-4-hydroxyphenyl)-2-propenoyl]aminomethyl-3-hydroxy-5-hydroxymethyl-2-methylpyridine]
3000 nM	COc1cc(/C=C/C=C/C(=O)NCc2c(COC(=O)c3ccc(C)cc3)cnc(C)c2O)cc(OC)c1OC(=O)c1ccc(C)cc1 [Example 58, 4-{5-(3,5-dimethoxy-4-toluoxyphenyl)-2,4-pentadienoyl}aminomethyl-3-hydroxy-2methyl-5-toluoxymethylpyridine]
600 nM	COc1cc(/C=C/C(=O)N2CCN(CCCOC(c3ccccc3)c3ccccc3)CC2)ccc1O [Example 71, N-[3-(3-methoxy-4-hydroxy)phenyl-2-propenoyl]-(3-benzhydroxypropyl)piperazine]
500 nM	O=C(/C=C/c1ccc(O)c(O)c1)NCCCCNC(=O)/C=C/c1ccc(O)c(O)c1 [Example 7, N,N'-bis-[(3,4-dihydroxyphenyl)-2-propenoyl]-1,4-diaminobutane]
400 nM	COc1cc(/C=C/C=C/C(=O)Nc2ccccc2C(=O)O)cc(OC)c1O [Example 57, N-{5-(3,5-dimethoxy-4-hydroxyphenyl)-2,4-pentadienoyl}anthranilic acid]
300 nM	COc1cc(/C=C/C=C/C(=O)NCCCCNC(=O)c2ccccc2N)ccc1O [Example 43, N-5-(3-methoxy-4-hydroxy)phenyl-2,4-pentadienoyl-N'-(2-amino)-benzoyl putrescine]
80 nM	O=C(/C=C/c1ccc(O)c(O)c1)NCCN1CCN(C(c2ccccc2)c2ccc(Cl)cc2)CC1 (stereo not shown) [Example 12, N-(p-chlorobenzhydryl)-N'-[2-{3-(3,4-dihydroxyphenyl)-2-propenoyl}aminoethyl]piperazine]
80 nM	Cc1ccc(C(=O)OCc2cnc(C)c(O)c2CNC(=O)/C=C/C=C/c2ccc(O)c(O)c2)cc1 [Example 46]
10 nM	COc1cc(/C=C/C(=O)N2CCN(CCCOC(C)(c3ccccc3)c3ccc(Cl)cc3)CC2)cc(OC)c1O (stereo not shown) [Example 106, N-[3-(3,5-dimethoxy-4-hydroxy)phenyl-2-propenoyl]-N'-[3-[1-phenyl-1-(p-chlorophenyl)ethoxy]propyl]piperazine]
